# Reference: US20250241917A1, “SMALL MOLECULE ENHANCERS OF ANTISENSE OLIGO ACTIVITY” (Oregon State University, priority 2022, published 2025)
# How the values were obtained:
# [1] = mice, intraperitoneal administration at 10 mg/kg; cited from earlier work
# HeLa pLuc/705 cells = assay: HeLa pLuc/705 assay (luciferase splice-correction readout of ASO activity with enhancer co-treatment); assay type: cell-based; conditions: for increase in 2′-MOE PS activity: 2′-MOE PS fixed at 2.5 μM; for increase in 2′-OMe PS activity: 2′-OMe PS fixed at 5 μM; for increase in PPMO activity: PPMO fixed at 5 μM; for enhancer concentration range that significantly enhances ASO activity on co-treatment of cells: cell culture co-treatment with ASO or macromolecule; for enhancing performance in screen of Selleck Chemicals FDA-approved drug library: primary screen 10 μM, secondary screen 0.1-20 μM; for enhancement of unmodified PMO activity: varied PMO concentration, enhancer fixed (febuxostat 2.5 μM; lonafarnib 250 nM), manual format (96 wells)
# From the text: The Hela pLuc/705 assay provides a positive readout of ASO's splice-modifying activity. Because messenger RNA (mRNA) splicing occurs in the cell's nucleus, the assay's output is indicative of the effectiveness of delivery of splice-modifying oligomers into the nucleus, which necessarily implies effective cytosolic delivery. The assay utilizes a genetically modified HeLa cell line that has been stably transfected with a gene containing coding sequence for a reporter enzyme (luciferase) and a mutated intron inserted within the coding sequence. The mutated intron cannot be properly excised resulting in an in-frame stop codon in the luciferase coding sequence, which prevents expression of functional luciferase. Two conditions must be met to produce the functional enzyme. First, an ASO must enter the cell nucleus to block the mutated splice site, thus restoring normal splicing and read through of the reporter message. The result is mRNA encoding functional reporter protein. Second, but equally important, the cells must be viable to carry out RNA processing and translation so that reporter protein activity is produced.
# Correction through successful nuclear delivery of a splice-modifying ASO restores luciferase expression, which is then quantified by measurement of cell lysate luminescence with addition of luciferin substrate. This assay is a standard measure of intracellular ASO delivery within the field.
# The HeLa pLuc/705 assay was miniaturized in order to allow it to be performed in […] cell culture plates, enabling the assay to be adapted to the high-throughput screening setting. The aim was to screen small molecules, with an emphasis on FDA-approved drugs, for ability to enhance ASO splice-modifying activity, which would be indicated by an increase in luminescence relative to cells treated with the ASO alone. In order to validate the approach, a positive control molecule was utilized which was already known to increase ASO activity when used alongside the ASO. Initially, a peptide intended for use in cell culture was used. Subsequently, febuxostat was used as a positive control.
# The first screened compounds were the compounds in the Selleck Chemicals FDA-approved drug library for enhancing activity. This library contains 1430 compounds. Library compounds were dispensed to 10 μM in the plate wells. […] These sixteen compounds were evaluated for enhancing performance over the concentration range 0.1-20 μM. This enabled validation of the primary screening results, as well as to evaluate relative performance of hits through observation of concentration-dependent activity. Hits were evaluated based on relative enhancing performance, and they were also qualitatively evaluated for suitability for future therapeutic use, considering the identity, indication and approval status of the compound.
# HeLa pLuc/705 cells were seeded into 384-well plates ([…] well volume) and incubated for 24 hours. At 24 hours, DMSO solutions of OAEs were added to subconfluent cells using an HP D300 Digital Dispenser, followed by addition of a testing ASO or DMSO. Cells were incubated for 24 hours. At 24 hours treatment time, growth medium was removed from the cells and […] of a lysis buffer/luciferin solution was added to each well. Luminescence was measured using a BioTek plate reader 5 minutes following addition of the lysis buffer/luciferin solution. Background luminescence values (generated using OAE only/DMSO-matched controls) were subtracted from experimental values. These methods apply to the commonly employed format for the assay using the HP D300 Digital Dispenser, with slight variations used for the high-throughput and manual formats.
# [2] = degrades to tizoxanide; cited from earlier work
# [3] = in vivo, po; cited from earlier work
# [4] = varied ASO concentration, enhancer fixed (resveratrol 10 μM)
Compound,increase in 2′-OMe PS activity (HeLa pLuc/705 cells; enhancer at 10 μM) [fold],enhancement of PPMO activity in screen of NIH Clinical Collection (HeLa pLuc/705 cells; PPMO),increase in PPMO activity (HeLa pLuc/705 cells; enhancer at 10 μM) [fold],enhancer concentration range that significantly enhances ASO activity on co-treatment of cells (HeLa pLuc/705 cells) [µM],enhancing performance in screen of Selleck Chemicals FDA-approved drug library (HeLa pLuc/705 cells; PPMO),enhancement of unmodified PMO activity (HeLa pLuc/705 cells),further results
Nc1nc2ccc(Cl)cc2c2nc(-c3ccco3)nn12 [CGS-15943],3.2,significant enhancement,4,0.25 to 20,–,–,adverse effects [1]: no reported adverse effects; increase in 2′-MOE PS activity (HeLa pLuc/705 cells; enhancer at 10 μM): 2.6 fold
CC(=O)Oc1ccccc1C(=O)Nc1ncc([N+](=O)[O-])s1 [nitazoxanide],–,significant enhancement,–,5 to 20,–,–,degradation in human plasma [2]: degrade very rapidly
NC(=O)N1CCC(CC(=O)N2CCC([C@H]3c4ncc(Br)cc4CCc4cc(Cl)cc(Br)c43)CC2)CC1 [lonafarnib],–,–,–,0.1 to 20,strong performers,found to enhance the activity,increase in 2′-MOE PS activity (HeLa pLuc/705 cells; enhancer at 250 nM): 2.1 fold; increase in 2′-OMe PS activity (HeLa pLuc/705 cells; enhancer at 250 nM): 3 fold; increase in PPMO activity (HeLa pLuc/705 cells; enhancer at 250 nM): 2.6 fold
Cc1nc(-c2ccc(OCC(C)C)c(C#N)c2)sc1C(=O)O [febuxostat],6.4,–,7.9,0.25 to 20,strong performers,found to enhance the activity,increase in 2′-MOE PS activity (HeLa pLuc/705 cells; enhancer at 5 μM): 3 fold; result in screen of MicroSource Discovery Spectrum library (HeLa pLuc/705 cells; PPMO): strong hit
Oc1ccc(/C=C/c2cc(O)cc(O)c2)cc1 [resveratrol],1.5,–,2.1,1 to 20,found to be an OAE,–,"enhancement of 2′-MOE PS activity (HeLa pLuc/705 cells; fixed ASO concentration, varied enhancer concentration): did not show enhancement; enhancement of 2′-MOE PS ASO activity (HeLa pLuc/705 cells; [4]): did show enhancement; enhancement of 2′-OMe PS ASO activity (HeLa pLuc/705 cells; [4]): failed to enhance activity; maximum plasma concentration [3]: 2.4 µM"
